# Laboratory results from US5869714A, “Salts of omega-3-polyunsaturated fatty acids and pharmaceutical formulations containing them” (Prospa B.V., priority 1994, dated 1999).
# Counter-ions that a name gives are not always drawn.
# What was measured:
# [1] = test system: thrombus growth rate induced by ADP in the hamster microvascular system; assay: in vivo antithrombotic action: growth rate of thrombus induced by ADP in hamster microvascular system; parameters: species or system hamster (Mesocricetus auratus); settings: oral; for antithrombotic activity (in words): 10 days
# Text: Considered however that this action is not fully indicative of the possible therapeutic effects of a drug, we measured the in vivo effect of the new salts in extremely significant tests, by determining for instance, their effect on growth rate of a thrombus induced by a known aggregatory agent (adenosine diphosphate; ADP) in the hamster microvascular system (in vivo antithrombotic action).
# (§1) In the course of a typical experiment, male hamsters of the Mesocricetus auratus genus, weighing 95-115 g, were acclimatized for 1 week in the laboratory before starting the study, then semi-chronically treated by oral route, for 10 consecutive days with the products under examination. More precisely, the animals were divided into 4 groups: group I received the vehicle alone, group II received DHA ethyl ester 100 mg/kg (equivalent to DHA 92 mg/kg), group III and IV were given DHA 50 mg/kg in the form of ethanolamine salt (59.3 mg/kg) and choline salt (65.7 mg/kg respectively).One hour following the last dose the animals were anaesthetized with sodium pentobarbitone (90 mg/kg, i.p.), the cheek pouch everted with a cotton wool bud and the upper layer and the underlying a vascular connective tissue removed with ophthalmic scissors to expose the lower vascular layer which was then bathed with saline solution and examined under a Leitz Dialux microscope (magnification×250).
# Evaluation of the antithrombotic activity requires measuring the growth rate of a thrombus (white body) in the microcirculation induced by the iontophoresis of ADP from a micropipette through the vessel wall. A micropipette of diameter 12μ was filled with 10^-2 M solution of ADP connected with a silver/silver chloride reference electrode placed in the animal's mouth and applied to a venule of diameter 16-40μ. By applying a negative potential to the micropipette, ADP (2×10^-14moles per second) was injected which caused the formation of a white body (platelet thrombus) gradually growing from the wall of the venule. The growth rate of the thrombus was determined by the time taken for 30%, 50% and 90% of the white body to form, 100% referring to total occlusion of the vessel with stasis. When the current was switched off, the white body rapidly embolised and no new white bodies formed until the current was re-applied. Inhibition of thrombus growth rate was calculated by comparing measurements in treated animals with those obtained in the control group (Table 2).
# [2] = test system: arteriolar thrombus disaggregation; assay: thrombolytic action: arteriolar thrombus disaggregation time after electrical vascular damage in the hamster; format: in vivo, hamster (Mesocricetus auratus); settings: oral; for thrombolytic activity (in words): 10 days
# Experimental: Through a different in vivo experimental model also the effect on thrombus formation and disaggregation was evaluated in the hamster, following vascular damage induced by electrical stimulation (thrombolytic action).
# as §1
# For the evaluation of the thrombolytic activity a micropipette was filled with 1.0M potassium chloride, applied to an arteriole of diameter 40-60μ and connected to a reference electrode placed in the animal's mouth. A negative potential was applied for 5 seconds using a Grass S48 stimulator to produce a current of 20-30 μA. A second micropipette containing 10^-2 M ADP was applied to the site of electrical damage and a negative potential applied, for 3 seconds. After the current was switched off, the time taken for the resultant thrombus to form and to disaggregate (about 40 seconds) was recorded using a stopwatch. The process of ADP stimulation of the arteriole damaged site was repeated several times and the mean was recorded of the values obtained over one hour and compared with that of the control animals.
# The percentage change in the persistence of the thrombus adhering to the damaged site in the treated and untreated animals is therefore an index of the thrombolytic activity of the drug (Table 3).
# [3] = test system: erythrocyte phospholipids; assay: DHA content of erythrocyte phospholipids in healthy volunteers after 3 weeks oral treatment; format: in vivo; settings: 1 g of DHA daily for 3 weeks
# Experimental: Considering that the phospholipid class of the erythrocyte membrane, along with the degree of unsaturation of the acyl chains, does condition red cell deformability and blood viscosity, it has been conducted a study to ascertain the effect of the salts in question on erythrocyte phospholipid composition, which we describe hereunder in illustration. 8 healthy volunteers were then selected and divided into 4 groups which were treated by oral route for 3 weeks with a daily quantity of DHA 1.0 g in the form of ethyl ester (1.1 g), sodium salt (1.1 g), choline salt (1.3 g) and ethanolamine salt (1.2 g). Before and after treatment samples of venous blood were collected and sodium citrate added, then the erythrocytes were isolated, washed for 3 times with saline solution (0.15M NaCl, pH 7.4) at 0° and again suspended in saline solution. 1-ml samples from the red cell suspensions were treated with 5 ml of methanol for 10 minutes then with 5 ml of chloroform containing 2 mg/100 ml of the antioxidant 2,6-di-tert.butyl-4-methyl-phenol (BHT). The organic solvents originating from 3 extractions were evaporated to dryness and the residue, formed by the erythrocyte phospholipids, was subjected to bidimensional chromatography according to Turner J. D. and Rouser G., Anal. Biochem. (Part 1--Erythrocyte lipids), 38, 423, 1970 to separate the different phospholipid classes: silica gel 60H (90 g, Merck) plus Fluorisil (7.2 g, BDH Chemicals) plates were used; the solvent systems consisted of chloroform:methanol: 25% ammonia:water (90:54:5.5:5.5) and chloroform:methanol:acetone:acetic acid:water (60:20:80:20:10). The various classes were identified against standard phospolipids (Sigma Chemical). A sample of total phospholipids and the various stains isolated were treated with 1.5 ml of boron trifluoride-methanol for 1 h at 65° C. under nitrogen, to prepare the methyl esters of the acids contained in the phospholipids to undergo gas-chromatography. To this end a Hewlet-Packard 5890 gas-chromatograph was used, fitted with a ionisation flame detector and with an HPl column 25 m in length and 0.31 mm in int. diameter; elium was used as the carrier gas, the injection port temperature was 320° C. and the detector temperature 340° C. The chamber temperature was programmed at 170° C. for 1 min., then increased by 4°°C./min up to 250° C. and kept at this temperature for 15 minutes.
# [4] = water solubility; format: physicochemical
# [5] = maximum, equiv. to DHA 50 mg/kg × 10 days
structure (smiles),measurement,setting,value
CC/C=C\C/C=C\C/C=C\C/C=C\C/C=C\C/C=C\CCC(=O)O [DHA choline salt],"Percentage reduction, as compared to the controls, of thrombus growth rate induced by ADP","[1]; 60 minutes post-dose, equiv. to DHA 50 mg/kg × 10 days",15.6%
same,"Percentage reduction, as compared to the controls, of thrombus growth rate induced by ADP","[1]; 70 minutes post-dose, equiv. to DHA 50 mg/kg × 10 days",35.4%
same,"Percentage reduction, as compared to the controls, of thrombus growth rate induced by ADP","[1]; 80 minutes post-dose, equiv. to DHA 50 mg/kg × 10 days",28.3%
same,"Percentage reduction, as compared to the controls, of thrombus growth rate induced by ADP","[1]; 90 minutes post-dose, equiv. to DHA 50 mg/kg × 10 days",34.2%
same,"Percentage reduction, as compared to the controls, of thrombus growth rate induced by ADP","[1]; 100 minutes post-dose, equiv. to DHA 50 mg/kg × 10 days",20.8%
same,"Percentage reduction, as compared to the controls, of thrombus growth rate induced by ADP","[1]; 110 minutes post-dose, equiv. to DHA 50 mg/kg × 10 days",20.2%
same,"Percentage reduction, as compared to the controls, of thrombus growth rate induced by ADP","[1]; 120 minutes post-dose, equiv. to DHA 50 mg/kg × 10 days",24.7%
same,"percentage reduction in ADP-induced thrombus growth rate, of the order of max.",[1]; [5],33-34%
same,antithrombotic activity (in words),[1],highly active
same,"Percentage reduction, as compared to the controls, of arteriolar thrombus disaggregation time","[2]; 60-70 minutes post-dose, equiv. to DHA 50 mg/kg × 10 days",31.6%
same,"Percentage reduction, as compared to the controls, of arteriolar thrombus disaggregation time","[2]; 70-80 minutes post-dose, equiv. to DHA 50 mg/kg × 10 days",32.8%
same,"Percentage reduction, as compared to the controls, of arteriolar thrombus disaggregation time","[2]; 80-90 minutes post-dose, equiv. to DHA 50 mg/kg × 10 days",35.4%
same,"Percentage reduction, as compared to the controls, of arteriolar thrombus disaggregation time","[2]; 90-100 minutes post-dose, equiv. to DHA 50 mg/kg × 10 days",37.7%
same,"Percentage reduction, as compared to the controls, of arteriolar thrombus disaggregation time","[2]; 100-110 minutes post-dose, equiv. to DHA 50 mg/kg × 10 days",28.6%
same,"Percentage reduction, as compared to the controls, of arteriolar thrombus disaggregation time","[2]; 110-120 minutes post-dose, equiv. to DHA 50 mg/kg × 10 days",29.1%
same,reduction in disaggregation time,[2]; [5],37-38%
same,thrombolytic activity (in words),[2],"definitely more active, if given at the same doses"
same,Percent increase in DHA content of erythrocyte phospholipids as compared to baseline values: Phosphatidylcholine,[3],146%
same,Percent increase in DHA content of erythrocyte phospholipids as compared to baseline values: Phosphatidylethanolamine,[3],38%
same,Percent increase in DHA content of erythrocyte phospholipids as compared to baseline values: Total phospholipids,[3],102%
"CC/C=C\C/C=C\C/C=C\C/C=C\C/C=C\C/C=C\CCC(=O)OCC [DHA ethyl ester, reference compound]","Percentage reduction, as compared to the controls, of thrombus growth rate induced by ADP","[1]; 60 minutes post-dose, 100 mg/kg × 10 days",5.5%
same,"Percentage reduction, as compared to the controls, of thrombus growth rate induced by ADP","[1]; 70 minutes post-dose, 100 mg/kg × 10 days",12.5%
same,"Percentage reduction, as compared to the controls, of thrombus growth rate induced by ADP","[1]; 80 minutes post-dose, 100 mg/kg × 10 days",26.3%
same,"Percentage reduction, as compared to the controls, of thrombus growth rate induced by ADP","[1]; 90 minutes post-dose, 100 mg/kg × 10 days",17.4%
same,"Percentage reduction, as compared to the controls, of thrombus growth rate induced by ADP","[1]; 100 minutes post-dose, 100 mg/kg × 10 days",15.1%
same,"Percentage reduction, as compared to the controls, of thrombus growth rate induced by ADP","[1]; 110 minutes post-dose, 100 mg/kg × 10 days",8.7%
same,"Percentage reduction, as compared to the controls, of thrombus growth rate induced by ADP","[1]; 120 minutes post-dose, 100 mg/kg × 10 days",14.9%
same,antithrombotic activity (in words),[1],moderately active
same,"Percentage reduction, as compared to the controls, of arteriolar thrombus disaggregation time","[2]; 60-70 minutes post-dose, 100 mg/kg × 10 days",21.4%
same,"Percentage reduction, as compared to the controls, of arteriolar thrombus disaggregation time","[2]; 70-80 minutes post-dose, 100 mg/kg × 10 days",30.5%
same,"Percentage reduction, as compared to the controls, of arteriolar thrombus disaggregation time","[2]; 80-90 minutes post-dose, 100 mg/kg × 10 days",36.2%
same,"Percentage reduction, as compared to the controls, of arteriolar thrombus disaggregation time","[2]; 90-100 minutes post-dose, 100 mg/kg × 10 days",32.9%
same,"Percentage reduction, as compared to the controls, of arteriolar thrombus disaggregation time","[2]; 100-110 minutes post-dose, 100 mg/kg × 10 days",27.8%
same,"Percentage reduction, as compared to the controls, of arteriolar thrombus disaggregation time","[2]; 110-120 minutes post-dose, 100 mg/kg × 10 days",25.9%
same,percentage reduction in arteriolar thrombus disaggregation time,"[2]; maximum, 100 mg/kg × 10 days",36.2%
same,thrombolytic activity (in words),[2],highly active
same,Percent increase in DHA content of erythrocyte phospholipids as compared to baseline values: Phosphatidylcholine,[3],77%
same,Percent increase in DHA content of erythrocyte phospholipids as compared to baseline values: Phosphatidylethanolamine,[3],10%
same,Percent increase in DHA content of erythrocyte phospholipids as compared to baseline values: Total phospholipids,[3],56%
"CC/C=C\C/C=C\C/C=C\C/C=C\C/C=C\C/C=C\CCC(=O)O [DHA sodium salt, reference compound]",Percent increase in DHA content of erythrocyte phospholipids as compared to baseline values: Phosphatidylcholine,[3]; sodium salt,93%
same,Percent increase in DHA content of erythrocyte phospholipids as compared to baseline values: Phosphatidylethanolamine,[3]; sodium salt,25%
same,Percent increase in DHA content of erythrocyte phospholipids as compared to baseline values: Total phospholipids,[3]; sodium salt,75%
CC/C=C\C/C=C\C/C=C\C/C=C\C/C=C\CCCC(=O)O [EPA choline salt],water solubility,[4],water-soiuble
CC/C=C\C/C=C\C/C=C\C/C=C\C/C=C\CCCC(=O)O [EPA ethanolamine salt],water solubility,[4],highly water-soluble
